Source: patent publication US20150164791A1, “CORNEAL SHAPING” (priority 2005, published 2015)

Legend:
[1] = system: MMPs 1, 2 and 8; conditions: rat corneas; cited from earlier work
[2] = system: MMP's 1, 2, 8 and 9; conditions: topical; rat cornea; animals with epithelial defects and with intact epithelium; cited from earlier work
[3] = in vivo; cited from earlier work
[4] = system: matrix metalloproteinases; assay: Activation of matrix metalloproteinases by gatifloxacin (established by the inventor)

O=C(O)Cc1ccccc1Nc1c(Cl)cccc1Cl [Diclofenac]
expression of MMPs 1, 2 and 8 [1]: induce expression

O=C(O)c1cn(C2CC2)c2cc(N3CCNCC3)c(F)cc2c1=O [ciprofloxacin]
MMP levels in corneal epithelium and anterior stroma [2]: increased

C[C@H]1c2cccc(O)c2C(O)=C2C(=O)[C@]3(O)C(O)=C(C(N)=O)C(=O)[C@@H](N(C)C)[C@@H]3[C@@H](O)[C@@H]21 [doxycyline, doxycycline]
corneal penetration [3]: penetrate the cornea well
tolerability [3]: well tolerated

COc1c(N2CCNC(C)C2)c(F)cc2c(=O)c(C(=O)O)cn(C3CC3)c12 (stereo not drawn) [gatifloxacin]
activation of matrix metalloproteinases [4]: capable of activating matrix metalloproteinases

O=C(c1ccccc1)c1ccc2n1CCC2C(=O)O (stereo not drawn) [ketorolac]
expression of MMPs 1, 2 and 8 [1]: induce expression
